Measurements published in US11254671B2, “Chemical compounds” (GLAXOSMITHKLINE INTELLECTUAL PROPERTY DEVELOPMENT LIMITED, priority 2017, dated 2022).

Assays:
[1] = system: phosphorylated Akt at serine 473 (pAKTs473) in primary human lung fibroblasts; assay: Highthroughput phosphorylated Akt (Ser473) in vitro immunoassay (MSD); assay type: cell-based; conditions: Fibroblast, 1 h compound, PDGF-BB 10 ng/ml for 10 min, mean of multiple experiments, read-out: mean pIC50, inhibition of pAkt (Ser473) (converted)
Text: Highthroughput Phosphorylated Akt (Ser473) In Vitro Immunoassay
Immunoassay to measure effect of test compounds on phosphorylated Akt at serine 473 (pAKTs473) in primary human lung fibroblasts (Lonza Group Ltd, Basel, Switzerland, Catalogue No. CC-2512) using the MesoScale Discovery (MSD) platform to quantify levels of total Akt and pAKTser473.
Human lung fibroblasts were routinely maintained in fibroblast basal medium supplemented with 2% foetal bovine serum (FBS), 0.1% human fibroblast growth factor (FGF)-B, 0.1% insulin, 0.1% GA-100 (Lonza Group Ltd, Basel, Switzerland, Catalogue No. CC-3132) at 37° C. in 5% CO2 according to the manufacturer's protocol.
For the assay, cells were harvested using Trypsin/EDTA, (Lonza Group Ltd, Basel, Switzerland, Catalogue No. CC-5012), at working concentration of 0.025%, resuspended to give 3×10^5 cells/ml and 50 ul/well seeded into 384-well plates (Greiner Group, Kremsmunster, Austria, Catalogue No. 781091) in media containing 0.4% FBS and incubated o/n at 37° C. in 5% CO2.
Test compounds were dissolved in 100% DMSO to give 10 mM stock solutions and serially diluted to generate an 11-point concentration response curve. Compound were further diluted by […] into 384-well V-bottom polypropylene plates (Greiner Group, Kremsmunster, Austria, Catalogue No. 781280) with media containing 0.4% FBS to give 50 μM top compound concentration in 0.5% DMSO.
Compounds were transferred to 384-well plates contacting cells (0.1% DMSO final) and incubated for 1 h at 37° C. in 5% CO2, prior to stimulation with platelet-derived growth factor (PDGF)-BB (R&D Systems, Catalogue No. 220-BB) at 10 ng/ml (final) for 10 min at RT. Cell assay plates were incubated on ice and treated with lysis buffer (Cell Signalling Technology, Catalogue No. 9806) containing protease and phosphatase inhibitors (Thermo Scientific, Catalogue No. 78444) followed by shaking for 30 min at 4° C.
MSD plates (MSD, MA6000 384-well GAR plate, Catalogue No. L21RA-2) were blocked with blocking buffer containing TBS (MSD, Cat. No. R61TX-1) with 0.5% bovine serum albumin (BSA) (Sigma Aldrich, Cat. No. A7906), 0.1% tween-20 (Sigma Aldrich, Catalogue No. P2287) and coated with rabbit-anti-human pAkt (s473) ab (Cell Signalling Technology, Catalogue No. CST #4060) at RT with shaking, followed by washing (×3) with 1×TBS wash reagent containing 0.1% Tween-20. Cell lysates (30 ul) were added and MSD plates centrifuged at 1000 rpm at 4° C. o/n.
Plates were washed with 1×TBS wash buffer (×3), prior to addition of mouse-anti-human-total Akt ab (1 mg/ml) (Upstate (Milipore), Catalogue No. 05-591) in blocking buffer and shaken at RT for 1 h. After washing with 1×TBS wash buffer (×3), plates were incubated with goat-anti-mouse SULFO-TAG detection ab (MSD, Catalogue No. R32AC-1) (1:500 in blocking buffer) for 1 h at RT. Plates were washed with 1×TBS (×3) and read buffer (2×) (MSD, Catalogue No. R92TC-1) added before detecting electrochemiluminescence (MSD Sector Imager 6000).
Data analysis was performed by determining % inhibition values for test compounds relative to the minimum (+PDGF-BB stimulation) and maximum responses (no PDGF-BB stimulation) with non-linear regression analysis to determine IC50 values for test compounds.

[2] = system: type I collagen deposition in primary lung fibroblasts; assay: Highthroughput type I collagen deposition (scar-in-a-jar) high content screening assay; assay type: cell-based; conditions: Homo sapiens, Primary lung fibroblast, 72 h, human pulmonary fibroblasts, TGF-β 1 ng/ml, Ficoll crowding, mean of multiple experiments, read-out: mean pIC50, inhibition of type I collagen deposition (converted)
Method: Example 53 Highthroughput Type I Collagen Deposition (Scar-in-a-Jar) High Content Screening Assay
Highthroughput, cellular type I collagen deposition was measured by adapting a published method; scar-in-a-jar (Chen et al., 2009) to primary lung fibroblasts derived from human tissue and combining with high content analysis to permit fluorescent quantification of collagen deposited in the extracellular matrix (ECM). The human biological samples were sourced ethically and their research use was in accord with the terms of the informed consents
Test compounds were dissolved in 100% DMSO to give 10 mM (stocks) and further diluted to give half log dilutions to generate an 11 point concentration response curve. 1 ul was transferred to 384-well plates (Greiner Group, Kremsmunster, Austria, Catalogue No Greine 781280r).
Human pulmonary fibroblasts were maintained in DMEM media (Gibco, Catalogue No 21969) supplemented with 4 mM L-glutamine (Gibco Catalogue No 25030-024) and 10% heat inactivated FBS (Gibco, Catalogue No 10099-141) at 37° C. in 10% CO2. Cells were harvested and resuspended at 4×10^6 cells/ml in a T175 cell culture flask (BD Falcom, Catalogue No: 353112) containing 50 mL of culture media. After 4 days 37° C. in 10% CO2, cells were harvested and seeded at 4000 cells per well (50 μL/well) into 384-well plates (BD Falcon, Catalogue No 353962Greiner) in assay media (0.4% heat inactivated FBS, 4 mM L-glutamine). Plates were sealed with breathable seals (Sigma, Catalogue No. BEM-1). Assay plates were incubated for 72 h at 37° C. in 10% CO2.
Assay media was supplemented with 112.5 mg/ml Ficoll 70 (Sigma, Catalogue No F2878), 75 mg/ml Ficoll 400 (Sigma, Catalogue No F4375) and 50 μg/ml ascorbic acid (Sigma, Catalogue No A8960). 30 μL assay media were added to 1 μl compound (37 μM compound concentration in 1% DMSO). Diluted compounds (10 μL) were transferred to plates containing cells and incubated for 3 h at 37° C. in 10% CO2. Transforming growth factor (TGF)-β (R&D systems, Catalogue No 100-B/CF) was reconstituted to give 10 μg/mL (stock) and further diluted in assay media containing Ficoll and ascorbic acid (1 in 3333). TGF-β was added to cell plates (1 ng/ml final) and cells incubated for 72 h at 37° C. in 10% CO2.
Media was aspirated from cells and 30 μL/well 100% ice-cold methanol added and incubated at RT for 5 min to fix cells. Methanol was aspirated and cells washed with PBS (3×). To block and permeabilise, cells were incubated with PBS containing 1% BSA and 0.1% Triton X 100 for 20 min, followed by PBS wash (3×). Cells were incubated with mouse anti human type I collagen monoclonal antibody (Sigma, Catalogue No C2456) diluted 1:1000 in PBS for 24 h at 4° C. Cells were washed with PBS containing 0.1% Tween-20 (3×) and incubated with secondary alexa fluor 488 goat-anti-mouse antibody (Invitrogen, Catalogue No A11001, 1 in 500 in PBS) and Hoechst 33342 (Sigma, Catalogue No H21492), 1 in 1000 in PBS) for 1 h at RT, prior to washing with PBS containing 0.1% Tween (×4).
Type I collagen immunoreactivity was detected using the INCell 2000 Analyzer (GE Healthcare, INcell 2000) set to excitation and emission wavelengths for DAPI and FITC with laser focus and exposure adjusted to appropriate levels. Images were imported and analysed using Columbus software (Perkin Elmer) and computational algorithms to quantify “total collagen area” and “cell count”.
Data analysis was performed by determining % inhibition values for test compounds relative to the minimum (media only) and maximum responses (TGF-βstimulation) with non-linear regression analysis to determine IC50 values for test compounds.

[3] = biological target: T1, mTOR (Homo sapiens, UniProt P42345); assay: mTOR kinobeads assay (competition-binding assay); conditions: HuT-78 cell extract, endogenously expressed mTOR, bead-immobilized capturing ligand; mean of multiple experiments; read-out: mean pIC50, affinity for mTOR (converted)
T1 construct: capturing of endogenously expressed target proteins from cell extracts by a bead-immobilized capturing ligand; endogenous in cells; host or cells: HuT-78 cells (ECACC 88041901), cell lysate
Method: The affinity of test compounds for mTOR was determined in the mTOR kinobeads assay. This is a competition-binding assay based on the capturing of endogenously expressed target proteins from cell extracts by a bead-immobilized capturing ligand in presence of the test compound.
HuT-78 cells (European Collection of Authenticated Cell Cultures, 88041901) were cultured according to vendor's instructions. Frozen cell pellets were homogenized in 3× pellet volumes lysis buffer (50 mM Tris-HCl, 0.4% (v/v) Igepal-CA630, 5% glycerol, 150 mM NaCl, 1.5 mMMgCl2, 25 mM NaF, 1 mM sodium vanadate, 1 mM DTT, pH 7.5, supplemented with EDTA-free protease inhibitor tablet (Roche)). The sample was dispersed using a Dounce homogenizer, kept rotating for 30 min at 4° C., and centrifuged for 10 min at 20 000 g at 4° C. The supernatant was centrifuged again for 1 h at 145 000 g. The protein concentration was determined by Bradford assay (BioRad), aliquots were snap frozen in liquid nitrogen and stored at −80° C.
The capturing matrices were generated by derivatizing N-hydroxysuccinimide (NHS) activated Sepharose 4 beads (GE Healthcare) with the functionalized ligands Compound A and Compound C at a ligand density of 5 mM. Remaining NHS-groups were blocked with ethanolamine.
For the mTOR kinobeads assay the matrices were combined in a 1:1 ratio and equilibrated in DP buffer (50 mM Tris-HCl (pH 7.5), 0.4% (v/v) Igepal-CA630, 5% (v/v) glycerol, 150 mM NaCl, 1.5 mM MgCl2, 25 mM NaF, 1 mM Na3VO4, 1 mM dithiothreitol). All steps of the mTOR kinobeads assay were performed at 4° C. or on ice. The cell lysate was diluted with DP buffer to a final concentration of 5 mg/ml and a final detergent concentration of 0.4% (v/v) Igepal-CA630. For the assay 250 μg cell lysate and 2.5 μl capturing matrix per well (final assay volume: 75 μl) were incubated in the presence of test compounds in a 384-well filter plate (MultiScreenHTS HV Filter Plate, 0.45 μm, MZHVNOW50, Merck Millipore). Each plate contained 16 positive (100 μM Compound B) and 16 negative (2% v/v DMSO) control wells. Compounds were tested in a concentration-response applying 1:3 or 1:4 dilution steps for in total 11 data points. DMSO concentration was 2% (v/v). After 2 h incubation on an overhead shaker (Roto-Shake Genie, Scientific Industries Inc.) at 4° C. the non-bound fraction was removed by washing the beads with DP buffer. Proteins retained on the beads were eluted in SDS sample buffer (200 mM Tris (pH 7.4), 250 mM Trizma Base, 4% (w/v) SDS, 20% (v/v) glycerol, 0.01% (w/v) bromophenol blue, 50 mM dithiothreitol) into a collection plate (384 well polypropylene microplate, V-shape, Greiner, 781 280). Eluates were spotted on nitrocellulose membranes (400 nl per spot) using an automated pin-tool liquid transfer (Biomek FX, Beckman). After drying, the membranes were rehydrated in 20% (v/v) ethanol and blocked by incubation with Odyssey blocking buffer (LICOR, 927-40000) for 1 h at room temperature. Blocked membranes were incubated overnight at 25° C. with Odyssey blocking buffer supplemented with a specific anti-mTOR antibody (Cell Signaling, 2972; 1:500) and 0.4% TWEEN-20. Then the membranes were washed in PBST buffer and incubated for 60 minutes at room temperature with the detection antibody (IRDye™ labelled antibody from LI-COR) diluted in Odyssey blocking buffer (LICOR 927-40000) containing 0.2% TWEEN-20. Then the membranes were washed with PBST and finally rinsed twice with PBS buffer to remove residual Tween-20. The membranes were then scanned with the Odyssey® Infrared Imaging System (LI-COR Biosciences). Fluorescence signals were recorded and analyzed according to the instructions of the manufacturer. Concentration response curves were computed with the software Activity Base. All data were normalized to the mean of 16 high (negative control) and 16 low (positive control) control wells on each plate. […]

IC50 [3]	SMILES	IC50 [1]	IC50 [2]
	CCCC1COCCN1c1cc(CS(C)(=O)=O)cc(-c2ccc3[nH]c(CNC)cc3n2)n1 (stereo not shown) [Example 48, ({5-[4-(methanesulfonylmethyl)-6-(3-propylmorpholin-4-yl)pyridin-2-yl]-1H-pyrrolo[3,2-b]pyridin-2-yl}methyl)(methyl)amine]	3.16 to 316 nM	39.8 to 1000 nM
2.51 to 316 nM	CNCc1cc2nc(-c3cc(CS(C)(=O)=O)cc(N4CCOC[C@H]4C)n3)ccc2[nH]1 [Example 26, ({5-[4-(methanesulfonylmethyl)-6-[(3R)-3-methylmorpholin-4-yl]pyridin-2-yl]-1H-pyrrolo[3,2-b]pyridin-2-yl}methyl)(methyl)amine]	3.16 to 316 nM	
